What was measured:
Test in all cases: KINOMEscan competition binding
Conditions in all cases: compound 1.0 µM
[1] = biological target: CDK19 (human) (UniProt Q9BWU1)
[2] = test system: LRRK2 (human), Q5S007 [G2019S]
[3] = biological target: NEK2 (human) (UniProt P51955)
[4] = biological target: MAPK15 (human) (UniProt Q8TD08)
[5] = biological target: EPHB2 (human) (UniProt P29323)
[6] = biological target: PAK2 (human) (UniProt Q13177)
[7] = biological target: LIMK1 (human) (UniProt P53667)
[8] = biological target: PIK3C2G (human) (UniProt O75747)
[9] = biological target: CSNK1E (human) (UniProt P49674)
[10] = biological target: BMPR1B (human) (UniProt O00238)
[11] = biological target: LCK (human) (UniProt P06239)
[12] = biological target: EPHA8 (human) (UniProt P29322)
[13] = biological target: CDK18 (human) (UniProt Q07002)
[14] = biological target: PHKG1 (human) (UniProt Q16816)
[15] = biological target: CLK3 (human) (UniProt P49761)
[16] = biological target: MAP3K5 (human) (UniProt Q99683)
[17] = biological target: MAP3K3 (human) (UniProt Q99759)
[18] = biological target: IKBKE (human) (UniProt Q14164)
[19] = biological target: WEE2 (human) (UniProt P0C1S8)
[20] = biological target: TYK2 JH2 pseudokinase (human) (UniProt P29597)
[21] = biological target: MKNK2 (human) (UniProt Q9HBH9)
[22] = biological target: MST4 (human) (UniProt Q9P289)
[23] = biological target: TIE1 (human) (UniProt P35590)
[24] = biological target: MELK (human) (UniProt Q14680)
[25] = biological target: MAP3K7 (human) (UniProt O43318)
[26] = biological target: EPHA1 (human) (UniProt P21709)
[27] = biological target: SRPK3 (human) (UniProt Q9UPE1)
[28] = biological target: PRKACB (human) (UniProt P22694)
[29] = test system: EGFR (human), P00533 [747-751 del / S ins]
[30] = biological target: DYRK2 (human) (UniProt Q92630)
[31] = biological target: PRKCI (human) (UniProt P41743)
[32] = biological target: RIOK2 (human) (UniProt Q9BVS4)
[33] = biological target: TNIK (human) (UniProt Q9UKE5)
[34] = test system: PIK3CA (human), P42336 [E545A]
[35] = biological target: HIPK4 (human) (UniProt Q8NE63)
[36] = test system: KIT (human), P10721 [D816H]
[37] = biological target: FGFR3 (human) (UniProt P22607)
[38] = biological target: TAOK3 (human) (UniProt Q9H2K8)
[39] = biological target: NEK4 (human) (UniProt P51957)
[40] = biological target: CAMK1G (human) (UniProt Q96NX5)
[41] = biological target: MAP3K10 (human) (UniProt Q02779)
[42] = biological target: MAPK12 (human) (UniProt P53778)
[43] = biological target: CaMK1 (human) (UniProt Q14012)

MELK (human), sequence (Q14680 whole entry, looked up): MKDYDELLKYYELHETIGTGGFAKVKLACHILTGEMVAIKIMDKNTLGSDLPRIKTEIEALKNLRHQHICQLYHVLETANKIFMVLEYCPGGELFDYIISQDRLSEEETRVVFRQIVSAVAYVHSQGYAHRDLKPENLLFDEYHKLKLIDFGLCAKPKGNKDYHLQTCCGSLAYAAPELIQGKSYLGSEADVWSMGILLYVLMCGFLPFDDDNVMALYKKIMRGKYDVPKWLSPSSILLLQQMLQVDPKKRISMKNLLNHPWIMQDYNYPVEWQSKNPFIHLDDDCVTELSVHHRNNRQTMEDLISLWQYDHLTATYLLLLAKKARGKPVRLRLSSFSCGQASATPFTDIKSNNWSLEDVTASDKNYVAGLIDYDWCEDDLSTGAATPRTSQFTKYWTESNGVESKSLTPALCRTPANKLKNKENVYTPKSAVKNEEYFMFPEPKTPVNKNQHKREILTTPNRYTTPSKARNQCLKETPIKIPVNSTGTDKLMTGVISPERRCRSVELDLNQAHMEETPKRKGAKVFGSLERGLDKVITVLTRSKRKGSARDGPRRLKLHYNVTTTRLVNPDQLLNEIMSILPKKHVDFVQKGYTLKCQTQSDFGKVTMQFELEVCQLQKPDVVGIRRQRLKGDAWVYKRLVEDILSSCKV
HIPK4 (human), sequence (Q8NE63 whole entry, looked up): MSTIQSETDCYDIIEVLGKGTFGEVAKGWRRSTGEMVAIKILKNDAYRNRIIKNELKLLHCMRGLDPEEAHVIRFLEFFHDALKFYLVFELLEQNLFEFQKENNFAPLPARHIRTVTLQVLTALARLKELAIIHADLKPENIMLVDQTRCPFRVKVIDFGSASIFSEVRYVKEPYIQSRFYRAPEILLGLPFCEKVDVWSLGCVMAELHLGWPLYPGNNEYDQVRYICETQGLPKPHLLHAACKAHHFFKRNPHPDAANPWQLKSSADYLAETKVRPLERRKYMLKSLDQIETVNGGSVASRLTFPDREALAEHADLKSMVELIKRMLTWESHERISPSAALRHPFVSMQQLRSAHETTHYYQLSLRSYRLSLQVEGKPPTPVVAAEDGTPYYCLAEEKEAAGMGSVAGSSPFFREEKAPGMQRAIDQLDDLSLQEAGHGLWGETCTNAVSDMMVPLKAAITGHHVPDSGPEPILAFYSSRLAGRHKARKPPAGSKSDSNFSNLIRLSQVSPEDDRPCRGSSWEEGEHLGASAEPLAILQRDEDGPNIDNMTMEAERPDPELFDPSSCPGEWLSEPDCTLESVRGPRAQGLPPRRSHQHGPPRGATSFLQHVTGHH
SRPK3 (human), sequence (Q9UPE1 whole entry, looked up): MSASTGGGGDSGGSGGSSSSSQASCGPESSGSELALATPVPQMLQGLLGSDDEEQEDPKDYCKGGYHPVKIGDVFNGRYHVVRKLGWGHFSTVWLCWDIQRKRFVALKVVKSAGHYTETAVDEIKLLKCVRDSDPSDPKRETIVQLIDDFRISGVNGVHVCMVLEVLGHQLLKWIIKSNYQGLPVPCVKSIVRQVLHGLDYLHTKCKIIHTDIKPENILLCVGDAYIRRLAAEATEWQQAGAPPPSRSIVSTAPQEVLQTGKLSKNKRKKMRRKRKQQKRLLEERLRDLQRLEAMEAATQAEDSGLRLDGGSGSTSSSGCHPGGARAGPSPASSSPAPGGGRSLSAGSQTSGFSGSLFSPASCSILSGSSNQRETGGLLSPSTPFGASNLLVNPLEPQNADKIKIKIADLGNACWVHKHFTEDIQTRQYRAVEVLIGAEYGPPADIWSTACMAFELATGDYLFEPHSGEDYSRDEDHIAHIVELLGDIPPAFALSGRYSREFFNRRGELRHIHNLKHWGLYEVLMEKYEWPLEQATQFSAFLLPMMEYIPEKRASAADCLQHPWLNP
MAP3K10 (human), sequence (Q02779 whole entry, looked up): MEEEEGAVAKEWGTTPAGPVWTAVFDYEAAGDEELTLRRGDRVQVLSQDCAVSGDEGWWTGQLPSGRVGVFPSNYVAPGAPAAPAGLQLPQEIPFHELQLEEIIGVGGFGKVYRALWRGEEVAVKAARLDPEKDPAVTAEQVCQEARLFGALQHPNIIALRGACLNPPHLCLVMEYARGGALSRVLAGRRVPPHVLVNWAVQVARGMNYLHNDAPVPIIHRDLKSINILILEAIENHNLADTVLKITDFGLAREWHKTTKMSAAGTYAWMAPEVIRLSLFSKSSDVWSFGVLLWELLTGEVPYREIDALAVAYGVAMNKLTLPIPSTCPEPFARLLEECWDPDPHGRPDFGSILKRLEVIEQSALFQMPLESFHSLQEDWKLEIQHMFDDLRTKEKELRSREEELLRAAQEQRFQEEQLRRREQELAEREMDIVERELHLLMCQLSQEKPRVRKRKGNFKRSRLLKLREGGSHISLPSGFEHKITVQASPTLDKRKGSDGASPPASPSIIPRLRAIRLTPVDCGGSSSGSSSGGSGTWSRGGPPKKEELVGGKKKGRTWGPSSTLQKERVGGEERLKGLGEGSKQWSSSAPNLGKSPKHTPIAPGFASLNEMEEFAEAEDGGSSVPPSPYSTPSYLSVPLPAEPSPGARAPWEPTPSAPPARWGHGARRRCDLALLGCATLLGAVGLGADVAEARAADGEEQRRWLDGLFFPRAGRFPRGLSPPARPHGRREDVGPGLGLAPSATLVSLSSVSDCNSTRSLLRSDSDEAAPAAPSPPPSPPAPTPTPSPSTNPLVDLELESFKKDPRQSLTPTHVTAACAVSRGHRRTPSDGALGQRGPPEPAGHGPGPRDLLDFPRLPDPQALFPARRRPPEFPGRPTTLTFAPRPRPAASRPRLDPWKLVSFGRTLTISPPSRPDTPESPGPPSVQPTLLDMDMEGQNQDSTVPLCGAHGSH
PHKG1 (human), sequence (Q16816 whole entry, looked up): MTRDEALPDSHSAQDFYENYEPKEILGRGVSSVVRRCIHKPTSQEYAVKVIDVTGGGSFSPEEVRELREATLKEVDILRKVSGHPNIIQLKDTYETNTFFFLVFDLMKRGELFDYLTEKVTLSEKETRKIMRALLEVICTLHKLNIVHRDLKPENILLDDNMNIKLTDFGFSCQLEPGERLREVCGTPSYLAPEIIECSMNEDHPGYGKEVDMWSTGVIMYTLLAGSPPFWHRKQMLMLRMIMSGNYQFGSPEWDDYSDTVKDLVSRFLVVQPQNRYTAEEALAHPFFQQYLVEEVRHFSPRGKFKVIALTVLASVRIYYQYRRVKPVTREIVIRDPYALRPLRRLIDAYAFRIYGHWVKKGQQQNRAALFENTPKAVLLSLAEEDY
MAP3K5 (human), sequence (Q99683 whole entry, looked up): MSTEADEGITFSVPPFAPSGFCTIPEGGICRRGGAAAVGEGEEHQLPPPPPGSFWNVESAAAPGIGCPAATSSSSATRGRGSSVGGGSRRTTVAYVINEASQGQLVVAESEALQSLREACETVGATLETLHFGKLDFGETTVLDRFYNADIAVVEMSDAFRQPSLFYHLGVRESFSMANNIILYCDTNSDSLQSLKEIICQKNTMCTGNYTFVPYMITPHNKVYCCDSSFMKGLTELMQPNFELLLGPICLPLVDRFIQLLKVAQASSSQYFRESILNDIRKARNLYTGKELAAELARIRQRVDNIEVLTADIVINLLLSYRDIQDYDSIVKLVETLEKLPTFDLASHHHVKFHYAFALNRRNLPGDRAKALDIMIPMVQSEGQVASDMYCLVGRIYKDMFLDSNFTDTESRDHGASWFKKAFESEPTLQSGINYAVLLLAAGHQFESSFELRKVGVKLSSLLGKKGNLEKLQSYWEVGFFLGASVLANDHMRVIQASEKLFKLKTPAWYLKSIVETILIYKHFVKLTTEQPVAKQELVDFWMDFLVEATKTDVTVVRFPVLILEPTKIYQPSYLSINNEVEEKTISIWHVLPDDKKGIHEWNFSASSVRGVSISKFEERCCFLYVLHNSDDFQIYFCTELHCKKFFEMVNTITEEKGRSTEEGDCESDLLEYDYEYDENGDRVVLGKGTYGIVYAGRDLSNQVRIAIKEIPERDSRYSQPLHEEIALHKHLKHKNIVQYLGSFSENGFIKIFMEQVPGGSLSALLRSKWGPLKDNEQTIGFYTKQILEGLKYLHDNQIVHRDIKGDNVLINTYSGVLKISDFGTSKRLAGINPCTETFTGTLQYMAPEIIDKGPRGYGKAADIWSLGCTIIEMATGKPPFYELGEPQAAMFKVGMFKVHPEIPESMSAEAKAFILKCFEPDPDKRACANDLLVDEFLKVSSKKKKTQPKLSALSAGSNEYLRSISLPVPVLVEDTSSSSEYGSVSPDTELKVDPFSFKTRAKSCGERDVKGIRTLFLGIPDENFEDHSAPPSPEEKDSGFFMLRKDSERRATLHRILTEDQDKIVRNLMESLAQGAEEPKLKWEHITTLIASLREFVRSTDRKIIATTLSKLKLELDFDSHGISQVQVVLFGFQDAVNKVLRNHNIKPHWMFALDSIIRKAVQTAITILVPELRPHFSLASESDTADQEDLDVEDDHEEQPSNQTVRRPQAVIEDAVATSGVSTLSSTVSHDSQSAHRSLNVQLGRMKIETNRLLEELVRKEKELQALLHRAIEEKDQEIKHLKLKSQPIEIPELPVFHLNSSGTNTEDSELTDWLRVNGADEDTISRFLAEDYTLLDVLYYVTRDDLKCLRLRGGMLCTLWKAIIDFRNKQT
CDK18 (human), sequence (Q07002 whole entry, looked up): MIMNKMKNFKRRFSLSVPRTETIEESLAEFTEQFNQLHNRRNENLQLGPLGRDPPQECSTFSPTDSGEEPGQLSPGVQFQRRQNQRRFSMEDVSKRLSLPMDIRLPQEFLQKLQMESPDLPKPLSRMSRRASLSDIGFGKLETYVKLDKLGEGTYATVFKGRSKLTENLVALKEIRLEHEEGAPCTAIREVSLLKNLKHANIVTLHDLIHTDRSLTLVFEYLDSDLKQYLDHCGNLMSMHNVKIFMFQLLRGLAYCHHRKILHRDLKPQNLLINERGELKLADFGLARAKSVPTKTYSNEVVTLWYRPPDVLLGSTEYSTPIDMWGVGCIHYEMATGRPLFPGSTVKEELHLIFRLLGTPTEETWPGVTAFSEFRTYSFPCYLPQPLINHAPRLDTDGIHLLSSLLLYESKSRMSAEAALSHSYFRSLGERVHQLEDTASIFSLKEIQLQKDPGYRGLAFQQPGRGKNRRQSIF

COCCNCCCn1c(C(=O)CF)c(-c2ccc(C)cc2)c2c(N)ncnc21 was tested. Which kinase still bound, per cent of control [1] did it give?
The kinase still bound, per cent of control was 98%.

And the kinase still bound, per cent of control [2]?
The kinase still bound, per cent of control was 100%.

What about the kinase still bound, per cent of control [3] of the same compound?
Its kinase still bound, per cent of control is 98%.

What about the kinase still bound, per cent of control [4] of the same compound?
The kinase still bound, per cent of control was 96%.

What about the kinase still bound, per cent of control [5] of the same compound?
The kinase still bound, per cent of control was 92%.

And the kinase still bound, per cent of control [6]?
Its kinase still bound, per cent of control is 85%.

And the kinase still bound, per cent of control [7]?
The kinase still bound, per cent of control was 100%.

What about the kinase still bound, per cent of control [8] of the same compound?
The kinase still bound, per cent of control was 92%.

And the kinase still bound, per cent of control [9]?
Its kinase still bound, per cent of control is 87%.

What about the kinase still bound, per cent of control [10] of the same compound?
Its kinase still bound, per cent of control is 85%.

And the kinase still bound, per cent of control [11]?
The kinase still bound, per cent of control was 65%.

And the kinase still bound, per cent of control [12]?
Its kinase still bound, per cent of control is 75%.

And the kinase still bound, per cent of control [13]?
The kinase still bound, per cent of control was 100%.

And the kinase still bound, per cent of control [14]?
The kinase still bound, per cent of control was 100%.

And the kinase still bound, per cent of control [15]?
The kinase still bound, per cent of control was 79%.

And the kinase still bound, per cent of control [16]?
Its kinase still bound, per cent of control is 100%.

What about the kinase still bound, per cent of control [17] of the same compound?
The kinase still bound, per cent of control was 96%.

What about the kinase still bound, per cent of control [18] of the same compound?
Its kinase still bound, per cent of control is 100%.

And the kinase still bound, per cent of control [19]?
The kinase still bound, per cent of control was 100%.

What about the kinase still bound, per cent of control [20] of the same compound?
The kinase still bound, per cent of control was 100%.

And the kinase still bound, per cent of control [21]?
The kinase still bound, per cent of control was 92%.

And the kinase still bound, per cent of control [22]?
Its kinase still bound, per cent of control is 69%.

And the kinase still bound, per cent of control [23]?
Its kinase still bound, per cent of control is 100%.

And the kinase still bound, per cent of control [24]?
The kinase still bound, per cent of control was 95%.

And the kinase still bound, per cent of control [25]?
Its kinase still bound, per cent of control is 100%.

And the kinase still bound, per cent of control [26]?
The kinase still bound, per cent of control was 94%.

What about the kinase still bound, per cent of control [27] of the same compound?
The kinase still bound, per cent of control was 78%.

What about the kinase still bound, per cent of control [28] of the same compound?
The kinase still bound, per cent of control was 96%.

What about the kinase still bound, per cent of control [29] of the same compound?
The kinase still bound, per cent of control was 84%.

What about the kinase still bound, per cent of control [30] of the same compound?
The kinase still bound, per cent of control was 89%.

And the kinase still bound, per cent of control [31]?
The kinase still bound, per cent of control was 75%.

And the kinase still bound, per cent of control [32]?
The kinase still bound, per cent of control was 100%.

What about the kinase still bound, per cent of control [33] of the same compound?
The kinase still bound, per cent of control was 95%.

And the kinase still bound, per cent of control [34]?
Its kinase still bound, per cent of control is 100%.

And the kinase still bound, per cent of control [35]?
The kinase still bound, per cent of control was 95%.

And the kinase still bound, per cent of control [36]?
Its kinase still bound, per cent of control is 97%.

What about the kinase still bound, per cent of control [37] of the same compound?
Its kinase still bound, per cent of control is 92%.

And the kinase still bound, per cent of control [38]?
The kinase still bound, per cent of control was 100%.

What about the kinase still bound, per cent of control [39] of the same compound?
Its kinase still bound, per cent of control is 100%.

And the kinase still bound, per cent of control [40]?
The kinase still bound, per cent of control was 97%.

And the kinase still bound, per cent of control [41]?
The kinase still bound, per cent of control was 77%.

And the kinase still bound, per cent of control [42]?
Its kinase still bound, per cent of control is 100%.

And the kinase still bound, per cent of control [43]?
Its kinase still bound, per cent of control is 100%.
